Legend:
[1] = system: intestinal starch absorption (in vivo α-amylase); experiment: glycemic levels of rats after starch administration; parameters: species or system Wistar rats; conditions: intragastric with starch 1 g/kg, 60 min; acarbose 50 mg/kg, tannins 100-500 mg/kg
Procedure: Male healthy Wistar rats weighing 200-250 g were used in all experiments. The rats were housed, fed, and treated in accordance with the universally accepted guidelines for animal experimentation. Prior to the investigations, the animals were kept for one week under standard environmental conditions. Throughout the experimentation period, the rats were maintained in single cages and had access to standard pelleted diet and water ad libitum. Food was withdrawn 18 h before the experiments. All experiments involving rats were done in accordance with the worldwide accepted ethical guidelines for animal experimentation and previously approved by the Ethics Committee for Animal Experimentation of the University of […]á (Protocol number 067/2014-CEUA-UEM). Rats were divided into 9 groups (n = 4 rats per group). To group I (positive control) commercial corn starch (1 g per kg body weight) was given intragastrically. Group II (negative control) received only tap water. […] Fasting blood glucose levels were determined before the administration of starch and amylase inhibitors (0 time). […] Blood glucose from cut tail tips was determined using Accu-Chek® Active Glucose Meter. […] The areas were determined with the corresponding data in Figures 6(a) and 6(b) using the numerical integration procedures of the Scientist Software from MicroMath Scientific Software (Salt Lake City, UT). […]

[2] = target: T1, porcine pancreatic α-amylase (Sus scrofa, UniProt P00690); parameters: method as in doi:10.1016/j.foodres.2013.12.004, PMID 8944767; conditions: cited from earlier work
T1 construct: purchased Sigma-Aldrich Co. Type VI-B
T1 sequence (P00690 16-511): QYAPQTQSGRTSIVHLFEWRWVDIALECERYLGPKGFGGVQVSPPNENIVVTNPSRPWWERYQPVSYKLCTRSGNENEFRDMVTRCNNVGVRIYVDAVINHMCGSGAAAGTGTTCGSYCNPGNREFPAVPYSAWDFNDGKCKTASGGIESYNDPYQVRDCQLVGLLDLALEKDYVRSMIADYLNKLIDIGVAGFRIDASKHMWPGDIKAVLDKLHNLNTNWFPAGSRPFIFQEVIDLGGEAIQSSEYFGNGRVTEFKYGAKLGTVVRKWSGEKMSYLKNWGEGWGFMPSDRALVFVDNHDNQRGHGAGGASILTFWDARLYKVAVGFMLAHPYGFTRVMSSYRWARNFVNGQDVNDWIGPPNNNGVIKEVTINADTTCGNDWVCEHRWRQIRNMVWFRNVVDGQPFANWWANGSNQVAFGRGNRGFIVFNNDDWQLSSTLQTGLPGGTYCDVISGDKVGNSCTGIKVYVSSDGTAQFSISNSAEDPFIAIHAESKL

C[C@H]1O[C@H](O[C@H]2[C@H](O)[C@@H](O)[C@@H](O[C@H]3[C@H](O)[C@@H](O)C(O)O[C@@H]3CO)O[C@@H]2CO)[C@H](O)[C@@H](O)[C@@H]1N[C@H]1C=C(CO)[C@@H](O)[C@H](O)[C@H]1O (some centres unmarked) [acarbose]
effect on glycemic levels after starch administration [1]: diminished the increase in blood glucose concentration
inhibitory potency compared with the tannins [2]: much better inhibitor of the pancreatic α-amylase than the tannins

Source: PMC5446891, “Inhibition of α-Amylases by Condensed and Hydrolysable Tannins: Focus on Kinetics and Hypoglycemic Actions” (Enzyme Research, 2017)
